Laboratory results as given in the supplement of paper PMC13380429.

Tests used:
Conditions in all cases: 72 h
Caco-2 [1] = assay: cell viability relative to DMSO; higher = less toxic
Calu-3 [2] = assay: as above
HepG2 [3] = assay: as above
U2OS [4] = assay: as above
Vero E6 [5] = assay: as above
Caco-2 [6] = assay: relative viability EC50 (midpoint between 100% and the lowest measured viability); higher = less toxic
Calu-3 [7] = assay: as above
HepG2 [8] = assay: as above
U2OS [9] = assay: as above
Vero E6 [10] = assay: as above
Caco-2 [11] = assay: drug sensitivity score (DSS) for viability; higher = more toxic; extreme values may be limits of the assay
Calu-3 [12] = assay: as above
HepG2 [13] = assay: as above
U2OS [14] = assay: as above
Vero E6 [15] = assay: as above

## NS(=O)(=O)c1ccc2c(c1)C1C=CCC1C(c1ccc(Br)cc1)N2 (centres undefined) [4BP-TQS]
Caco-2 [1]; 1 nM
  cell viability: 102%
Caco-2 [1]; 10 nM
  cell viability: 97.1%
Caco-2 [1]; 100 nM
  cell viability: 99.6%
Caco-2 [1]; 1000 nM
  cell viability: 98.5%
Caco-2 [1]; 10000 nM
  cell viability: 97.1%
Calu-3 [2]; 1 nM
  cell viability: 110%
Calu-3 [2]; 10 nM
  cell viability: 89.3%
Calu-3 [2]; 100 nM
  cell viability: 101%
Calu-3 [2]; 1000 nM
  cell viability: 96.3%
Calu-3 [2]; 10000 nM
  cell viability: 105%
HepG2 [3]; 1 nM
  cell viability: 101%
HepG2 [3]; 10 nM
  cell viability: 105%
HepG2 [3]; 100 nM
  cell viability: 89.5%
HepG2 [3]; 1000 nM
  cell viability: 91.5%
HepG2 [3]; 10000 nM
  cell viability: 94%
U2OS [4]; 1 nM
  cell viability: 97.8%
U2OS [4]; 10 nM
  cell viability: 98.6%
U2OS [4]; 100 nM
  cell viability: 103%
U2OS [4]; 1000 nM
  cell viability: 96.6%
U2OS [4]; 10000 nM
  cell viability: 97.5%
Vero E6 [5]; 1 nM
  cell viability: 104%
Vero E6 [5]; 10 nM
  cell viability: 99.1%
Vero E6 [5]; 100 nM
  cell viability: 102%
Vero E6 [5]; 1000 nM
  cell viability: 104%
Vero E6 [5]; 10000 nM
  cell viability: 100%
Caco-2 [6]
  relative viability EC50: > 10 µM
Calu-3 [7]
  relative viability EC50: > 10 µM
HepG2 [8]
  relative viability EC50: > 10 µM
U2OS [9]
  relative viability EC50: > 10 µM
Vero E6 [10]
  relative viability EC50: > 10 µM
Caco-2 [11]
  drug sensitivity score: 0
Calu-3 [12]
  drug sensitivity score: 0
HepG2 [13]
  drug sensitivity score: 0.2
U2OS [14]
  drug sensitivity score: 0
Vero E6 [15]
  drug sensitivity score: 0

## Cn1c(=O)c2c(ncn2CCO)n(C)c1=O [etofylline]
Caco-2 [1]; 1 nM
  cell viability: 103%
Caco-2 [1]; 10 nM
  cell viability: 98%
Caco-2 [1]; 100 nM
  cell viability: 90.5%
Caco-2 [1]; 1000 nM
  cell viability: 102%
Caco-2 [1]; 10000 nM
  cell viability: 97.6%
Calu-3 [2]; 1 nM
  cell viability: 97.8%
Calu-3 [2]; 10 nM
  cell viability: 99.6%
Calu-3 [2]; 100 nM
  cell viability: 97%
Calu-3 [2]; 1000 nM
  cell viability: 98.2%
Calu-3 [2]; 10000 nM
  cell viability: 102%
HepG2 [3]; 1 nM
  cell viability: 101%
HepG2 [3]; 10 nM
  cell viability: 110%
HepG2 [3]; 100 nM
  cell viability: 88.8%
HepG2 [3]; 1000 nM
  cell viability: 96.6%
HepG2 [3]; 10000 nM
  cell viability: 102%
U2OS [4]; 1 nM
  cell viability: 102%
U2OS [4]; 10 nM
  cell viability: 97.4%
U2OS [4]; 100 nM
  cell viability: 97%
U2OS [4]; 1000 nM
  cell viability: 98.8%
U2OS [4]; 10000 nM
  cell viability: 98.4%
Vero E6 [5]; 1 nM
  cell viability: 104%
Vero E6 [5]; 10 nM
  cell viability: 98%
Vero E6 [5]; 100 nM
  cell viability: 103%
Vero E6 [5]; 1000 nM
  cell viability: 103%
Vero E6 [5]; 10000 nM
  cell viability: 103%
Caco-2 [6]
  relative viability EC50: > 10 µM
Calu-3 [7]
  relative viability EC50: > 10 µM
HepG2 [8]
  relative viability EC50: > 10 µM
U2OS [9]
  relative viability EC50: > 10 µM
Vero E6 [10]
  relative viability EC50: > 10 µM
Caco-2 [11]
  drug sensitivity score: 0
Calu-3 [12]
  drug sensitivity score: 0
HepG2 [13]
  drug sensitivity score: 0
U2OS [14]
  drug sensitivity score: 0
Vero E6 [15]
  drug sensitivity score: 0

## Cc1cc(O)ccc1Cl [chlorocresol]
Caco-2 [1]; 1 nM
  cell viability: 109%
Caco-2 [1]; 10 nM
  cell viability: 104%
Caco-2 [1]; 100 nM
  cell viability: 100%
Caco-2 [1]; 1000 nM
  cell viability: 97.4%
Caco-2 [1]; 10000 nM
  cell viability: 95.1%
Calu-3 [2]; 1 nM
  cell viability: 99.8%
Calu-3 [2]; 10 nM
  cell viability: 92.3%
Calu-3 [2]; 100 nM
  cell viability: 96.3%
Calu-3 [2]; 1000 nM
  cell viability: 105%
Calu-3 [2]; 10000 nM
  cell viability: 101%
HepG2 [3]; 1 nM
  cell viability: 100%
HepG2 [3]; 10 nM
  cell viability: 100%
HepG2 [3]; 100 nM
  cell viability: 99%
HepG2 [3]; 1000 nM
  cell viability: 103%
HepG2 [3]; 10000 nM
  cell viability: 102%
U2OS [4]; 1 nM
  cell viability: 105%
U2OS [4]; 10 nM
  cell viability: 99.6%
U2OS [4]; 100 nM
  cell viability: 103%
U2OS [4]; 1000 nM
  cell viability: 97.8%
U2OS [4]; 10000 nM
  cell viability: 100%
Vero E6 [5]; 1 nM
  cell viability: 96.2%
Vero E6 [5]; 10 nM
  cell viability: 103%
Vero E6 [5]; 100 nM
  cell viability: 100%
Vero E6 [5]; 1000 nM
  cell viability: 111%
Vero E6 [5]; 10000 nM
  cell viability: 99.4%
Caco-2 [6]
  relative viability EC50: > 10 µM
Calu-3 [7]
  relative viability EC50: > 10 µM
HepG2 [8]
  relative viability EC50: > 10 µM
U2OS [9]
  relative viability EC50: > 10 µM
Vero E6 [10]
  relative viability EC50: > 10 µM
Caco-2 [11]
  drug sensitivity score: 0
Calu-3 [12]
  drug sensitivity score: 0
HepG2 [13]
  drug sensitivity score: 0
U2OS [14]
  drug sensitivity score: 0
Vero E6 [15]
  drug sensitivity score: 0

## O=C(O)/C=C/c1ccc(O)cc1 [naringeninic-acid]
Caco-2 [1]; 1 nM
  cell viability: 88%
Caco-2 [1]; 10 nM
  cell viability: 91.5%
Caco-2 [1]; 100 nM
  cell viability: 86.1%
Caco-2 [1]; 1000 nM
  cell viability: 104%
Caco-2 [1]; 10000 nM
  cell viability: 85.4%
Calu-3 [2]; 1 nM
  cell viability: 93.2%
Calu-3 [2]; 10 nM
  cell viability: 109%
Calu-3 [2]; 100 nM
  cell viability: 100%
Calu-3 [2]; 1000 nM
  cell viability: 109%
Calu-3 [2]; 10000 nM
  cell viability: 108%
HepG2 [3]; 1 nM
  cell viability: 92%
HepG2 [3]; 10 nM
  cell viability: 108%
HepG2 [3]; 100 nM
  cell viability: 97.5%
HepG2 [3]; 1000 nM
  cell viability: 96.8%
HepG2 [3]; 10000 nM
  cell viability: 94%
U2OS [4]; 1 nM
  cell viability: 102%
U2OS [4]; 10 nM
  cell viability: 103%
U2OS [4]; 100 nM
  cell viability: 98.9%
U2OS [4]; 1000 nM
  cell viability: 106%
U2OS [4]; 10000 nM
  cell viability: 101%
Caco-2 [6]
  relative viability EC50: > 10 µM
Calu-3 [7]
  relative viability EC50: > 10 µM
HepG2 [8]
  relative viability EC50: > 10 µM
U2OS [9]
  relative viability EC50: > 10 µM
Caco-2 [11]
  drug sensitivity score: 0.1
Calu-3 [12]
  drug sensitivity score: 0
HepG2 [13]
  drug sensitivity score: 0
U2OS [14]
  drug sensitivity score: 0

## C[C@]12C=CC(=O)C=C1CC[C@@H]1[C@@H]2C(=O)C[C@@]2(C)[C@H]1CC[C@]2(O)C(=O)CO [prednisone]
Caco-2 [1]; 1 nM
  cell viability: 95.8%
Caco-2 [1]; 10 nM
  cell viability: 99.6%
Caco-2 [1]; 100 nM
  cell viability: 100%
Caco-2 [1]; 1000 nM
  cell viability: 89.7%
Caco-2 [1]; 10000 nM
  cell viability: 85.3%
Calu-3 [2]; 1 nM
  cell viability: 97.8%
Calu-3 [2]; 10 nM
  cell viability: 98.1%
Calu-3 [2]; 100 nM
  cell viability: 98%
Calu-3 [2]; 1000 nM
  cell viability: 106%
Calu-3 [2]; 10000 nM
  cell viability: 103%
HepG2 [3]; 1 nM
  cell viability: 100%
HepG2 [3]; 10 nM
  cell viability: 105%
HepG2 [3]; 100 nM
  cell viability: 98%
HepG2 [3]; 1000 nM
  cell viability: 101%
HepG2 [3]; 10000 nM
  cell viability: 90.6%
U2OS [4]; 1 nM
  cell viability: 98.9%
U2OS [4]; 10 nM
  cell viability: 99.2%
U2OS [4]; 100 nM
  cell viability: 95.7%
U2OS [4]; 1000 nM
  cell viability: 99.6%
U2OS [4]; 10000 nM
  cell viability: 95%
Vero E6 [5]; 1 nM
  cell viability: 100%
Vero E6 [5]; 10 nM
  cell viability: 99.3%
Vero E6 [5]; 100 nM
  cell viability: 104%
Vero E6 [5]; 1000 nM
  cell viability: 97.4%
Vero E6 [5]; 10000 nM
  cell viability: 94.6%
Caco-2 [6]
  relative viability EC50: > 10 µM
Calu-3 [7]
  relative viability EC50: > 10 µM
HepG2 [8]
  relative viability EC50: > 10 µM
U2OS [9]
  relative viability EC50: > 10 µM
Vero E6 [10]
  relative viability EC50: > 10 µM
Caco-2 [11]
  drug sensitivity score: 0.9
Calu-3 [12]
  drug sensitivity score: 0
HepG2 [13]
  drug sensitivity score: 0
U2OS [14]
  drug sensitivity score: 0
Vero E6 [15]
  drug sensitivity score: 0

## CCOC(=O)N1CSC[C@H]1C(=O)O [telmesteine]
Caco-2 [1]; 1 nM
  cell viability: 109%
Caco-2 [1]; 10 nM
  cell viability: 93.6%
Caco-2 [1]; 100 nM
  cell viability: 100%
Caco-2 [1]; 1000 nM
  cell viability: 90.2%
Caco-2 [1]; 10000 nM
  cell viability: 95.5%
Calu-3 [2]; 1 nM
  cell viability: 97.9%
Calu-3 [2]; 10 nM
  cell viability: 91%
Calu-3 [2]; 100 nM
  cell viability: 94.8%
Calu-3 [2]; 1000 nM
  cell viability: 107%
Calu-3 [2]; 10000 nM
  cell viability: 102%
HepG2 [3]; 1 nM
  cell viability: 101%
HepG2 [3]; 10 nM
  cell viability: 109%
HepG2 [3]; 100 nM
  cell viability: 105%
HepG2 [3]; 1000 nM
  cell viability: 90.1%
HepG2 [3]; 10000 nM
  cell viability: 88.9%
U2OS [4]; 1 nM
  cell viability: 97.1%
U2OS [4]; 10 nM
  cell viability: 100%
U2OS [4]; 100 nM
  cell viability: 99.2%
U2OS [4]; 1000 nM
  cell viability: 96.4%
U2OS [4]; 10000 nM
  cell viability: 99%
Caco-2 [6]
  relative viability EC50: > 10 µM
Calu-3 [7]
  relative viability EC50: > 10 µM
HepG2 [8]
  relative viability EC50: > 10 µM
U2OS [9]
  relative viability EC50: > 10 µM
Caco-2 [11]
  drug sensitivity score: 0
Calu-3 [12]
  drug sensitivity score: 0
HepG2 [13]
  drug sensitivity score: 0.2
U2OS [14]
  drug sensitivity score: 0

## O=C(O)c1cc(/N=N/c2ccc(S(=O)(=O)Nc3ccccn3)cc2)ccc1O [sulfasalazine]
Caco-2 [1]; 1 nM
  cell viability: 108%
Caco-2 [1]; 10 nM
  cell viability: 99.5%
Caco-2 [1]; 100 nM
  cell viability: 89.9%
Caco-2 [1]; 1000 nM
  cell viability: 96.6%
Caco-2 [1]; 10000 nM
  cell viability: 112%
Calu-3 [2]; 1 nM
  cell viability: 101%
Calu-3 [2]; 10 nM
  cell viability: 102%
Calu-3 [2]; 100 nM
  cell viability: 102%
Calu-3 [2]; 1000 nM
  cell viability: 104%
Calu-3 [2]; 10000 nM
  cell viability: 91.5%
U2OS [4]; 1 nM
  cell viability: 98.6%
U2OS [4]; 10 nM
  cell viability: 99.1%
U2OS [4]; 100 nM
  cell viability: 97.4%
U2OS [4]; 1000 nM
  cell viability: 102%
U2OS [4]; 10000 nM
  cell viability: 98.1%
Vero E6 [5]; 1 nM
  cell viability: 104%
Vero E6 [5]; 10 nM
  cell viability: 103%
Vero E6 [5]; 100 nM
  cell viability: 107%
Vero E6 [5]; 1000 nM
  cell viability: 98.7%
Vero E6 [5]; 10000 nM
  cell viability: 97.6%
Caco-2 [6]
  relative viability EC50: > 10 µM
Calu-3 [7]
  relative viability EC50: > 10 µM
U2OS [9]
  relative viability EC50: > 10 µM
Vero E6 [10]
  relative viability EC50: > 10 µM
Caco-2 [11]
  drug sensitivity score: 0
Calu-3 [12]
  drug sensitivity score: 0
U2OS [14]
  drug sensitivity score: 0
Vero E6 [15]
  drug sensitivity score: 0
